Assay: xn = mol fraction of the nth substance listed

CC[n+]1ccn(C)c1.C[C@H](N)C(=O)[O-] + CC[n+]1ccn(C)c1.N#C[C-](C#N)C#N
101 kPa, x2 = 0
Conditions	viscosity [mPa·s]
308.15 K	137.5
313.15 K	103.5

O=S(=O)([O-])C(F)(F)F.[Li+] + CCCC[n+]1ccn(C)c1.N#C[N-]C#N
electrical conductivity [S/m], 101 kPa
Conditions	x2 = 0.8612	x2 = 0.8907	x2 = 0.9197	x2 = 0.9504	x2 = 0.9799
288.15 K	0.236	–	0.387	0.489	0.591
298.15 K	0.399	0.521	0.625	0.776	0.91
333.15 K	1.4	1.72	1.91	2.25	2.55

NCCNCCN + CCCC[n+]1ccn(C)c1.F[B-](F)(F)F
101.3 kPa
Conditions	viscosity [mPa·s]
298.15 K, x2 = 0	5.52
298.15 K, x2 = 0.3995	23.66
298.15 K, x2 = 0.5905	40.1
303.15 K, x2 = 0.2998	14.59
303.15 K, x2 = 0.4992	26.4
303.15 K, x2 = 0.5905	33.6
303.15 K, x2 = 0.6974	44.2
303.15 K, x2 = 0.8948	69.1
308.15 K, x2 = 0.2998	12.47
313.15 K, x2 = 0.1986	7.86
313.15 K, x2 = 0.3995	14.5
313.15 K, x2 = 0.4992	19.06
313.15 K, x2 = 0.6974	30.9
318.15 K, x2 = 0.051	3.95
323.15 K, x2 = 0.2998	8.65
323.15 K, x2 = 0.3995	11.33
323.15 K, x2 = 0.5905	18.26
328.15 K, x2 = 0.2998	7.68
328.15 K, x2 = 0.3995	9.9
328.15 K, x2 = 0.4992	12.63
328.15 K, x2 = 0.6974	19.4
333.15 K, x2 = 0.1986	4.89
333.15 K, x2 = 0.2998	6.68
333.15 K, x2 = 0.4992	11.19
333.15 K, x2 = 0.6974	17.57
333.15 K, x2 = 0.9496	24.5

CC[N+](CC)(CC)CC.O=S(=O)([O-])C(F)(F)F + CC#N
100 kPa
Conditions	electrical conductivity [S/m]
293.15 K, x1 = 0.02	2.56
293.15 K, x1 = 0.05	4.03
298.15 K, x1 = 0.0997	4.87
308.15 K, x1 = 0.1498	4.75
318.15 K, x1 = 0.05	4.94
318.15 K, x1 = 0.2995	3.89
323.15 K, x1 = 0.2995	4.16
333.15 K, x1 = 0.2	5.43
333.15 K, x1 = 0.25	4.96
333.15 K, x1 = 0.2995	4.73
348.15 K, x1 = 0.02	3.67
348.15 K, x1 = 0.08	6.89
348.15 K, x1 = 0.1498	6.97

C[n+]1ccn(CCCC#N)c1.F[B-](F)(F)F + CC#N
100 kPa
Conditions	electrical conductivity [S/m]
288.15 K, x1 = 0.5996	0.36
293.15 K, x1 = 0.4999	0.69
293.15 K, x1 = 0.5996	0.47
303.15 K, x1 = 0.4999	1
303.15 K, x1 = 0.8885	0.31
308.15 K, x1 = 0.7001	0.72
323.15 K, x1 = 0.8024	0.87

CC[n+]1ccn(C)c1.O=S(=O)([O-])C(F)(F)F + CC1COC(=O)O1
101 kPa
Conditions	viscosity [mPa·s]
288.15 K, x1 = 0.3005	10.78
288.15 K, x1 = 0.3998	14.62
288.15 K, x1 = 0.5001	18.7
293.15 K, x1 = 0.0999	5.28
293.15 K, x1 = 0.8004	32.5
298.15 K, x1 = 0.8004	27.2
298.15 K, x1 = 0.8998	32.5
298.15 K, x1 = 1	40.4
303.15 K, x1 = 0.0999	3.91
303.15 K, x1 = 0.3998	8.9
303.15 K, x1 = 0.6987	18.4
303.15 K, x1 = 1	34
308.15 K, x1 = 0.5001	9.9
313.15 K, x1 = 0.8998	20.4
313.15 K, x1 = 1	24.9
318.15 K, x1 = 0.1999	3.52
318.15 K, x1 = 0.3005	4.44
318.15 K, x1 = 0.3998	5.86
318.15 K, x1 = 0.5001	7.69
318.15 K, x1 = 0.8998	17.7
323.15 K, x1 = 0.6987	10.72
323.15 K, x1 = 0.8998	15.47
328.15 K, x1 = 0.1999	2.81
328.15 K, x1 = 0.3005	3.48
328.15 K, x1 = 0.3998	4.58
328.15 K, x1 = 0.5001	6.16
328.15 K, x1 = 0.601	7.77
333.15 K, x1 = 0.3005	3.14
333.15 K, x1 = 0.6987	8.51
333.15 K, x1 = 0.8004	10.43
338.15 K, x1 = 0.601	6.33
338.15 K, x1 = 0.8004	9.21
343.15 K, x1 = 0.0999	1.74
343.15 K, x1 = 0.3998	3.35
353.15 K, x1 = 0.3005	2.29
353.15 K, x1 = 0.8998	8.38
353.15 K, x1 = 1	9.49

CCCCCCCCCCCCCC[P+](CCCCCC)(CCCCCC)CCCCCC.N#C[N-]C#N + CCCCCCCCCCCC
101 kPa
Conditions	viscosity [mPa·s]
303.15 K, x1 = 1	328
308.15 K, x1 = 0.5534	90
313.15 K, x1 = 0.736	112
323.15 K, x1 = 0.5534	47.4
323.15 K, x1 = 0.736	72.7
323.15 K, x1 = 1	123
328.15 K, x1 = 0.5534	39.2
328.15 K, x1 = 0.736	60
343.15 K, x1 = 0.5534	24.2
353.15 K, x1 = 1	41

CCCCCCCC[n+]1ccc2ccccc2c1.O=S(=O)([N-]S(=O)(=O)C(F)(F)F)C(F)(F)F + CCCCCCO
101 kPa
Conditions	viscosity [mPa·s]
318.15 K, x2 = 0.2857	48.99
338.15 K, x2 = 0.6854	6.58

O=S(=O)([O-])C(F)(F)F.[Li+] + CC[n+]1ccn(C)c1.O=S(=O)([O-])C(F)(F)F
electrical conductivity [S/m], 101 kPa
Conditions	x1 = 0.007746	x1 = 0.01537	x2 = 0.9697	x2 = 0.9746
288.15 K	0.625	0.568	–	0.535
298.15 K	0.904	0.837	0.775	0.792
333.15 K	2.31	2.14	2.02	2.05

CC(=O)[O-].Cn1cc[n+](C)c1 + CCO
293.15 K, 101.3 kPa
Conditions	electrical conductivity [S/m]
x2 = 0	0.275
x2 = 0.0694	0.335
x2 = 0.1341	0.401
x2 = 0.2695	0.559
x2 = 0.4097	0.873
x2 = 0.5071	1.197
x2 = 0.6815	1.821
x2 = 0.7393	1.903
x2 = 0.7685	1.86
x2 = 0.7896	1.683
x2 = 0.8843	0.86
x2 = 0.9267	0.491
x2 = 0.9487	0.302
x2 = 0.9595	0.213
x2 = 0.9709	0.131

O=c1cc[nH]c(=O)[nH]1 + CC(=O)[O-].CC[n+]1ccn(C)c1
Conditions	viscosity [mPa·s]
298.15 K, 100 kPa, x1 = 0.233	773

CCCCOC(C)=O + CCCC[n+]1ccn(C)c1.O=S(=O)([N-]S(=O)(=O)C(F)(F)F)C(F)(F)F
Conditions	electrical conductivity, x1 = 0.8928 [S/m]	electrical conductivity, x1 = 0.9456 [S/m]	viscosity, x1 = 0.313 [mPa·s]	viscosity, x1 = 0.8928 [mPa·s]	viscosity, x1 = 0.9456 [mPa·s]
298.15 K, 100 kPa	0.373	0.163	–	1.47	1.092
318.15 K, 100.7 kPa	–	–	10	–	–
